The results in this text go back to publication PMC9221509, “Discovery of a Novel Antimicrobial Peptide, Temporin-PKE, from the Skin Secretion of Pelophylax kl. esculentus, and Evaluation of Its Structure-Activity Relationships” (Biomolecules, 2022).

Common to all, as to test: microbe, parasite or virus in culture
Assay [1] relates to C. albicans (ATCC CRM 10231). The class given is cell-based, Candida albicans. The conditions noted are these: 15 replicates in three independent assays. As for the experimental part:
(§1) The antimicrobial activities of peptides were evaluated against the Gram-positive bacteria, S. aureus (ATCC 6538), methicillin-resistant Staphylococcus aureus (MRSA) (NCTC 12493), Enterococcus faecalis (E. faecalis) (NCTC 12697); the Gram-negative bacteria, E. coli (ATCC CRM 8739), Klebsiella pneumoniae (K. pneumoniae) (ATCC 43816), Pseudomonas aeruginosa (P. aeruginosa) (ATCC CRM 9027); and the yeast, Candida albicans (C. albicans) (ATCC CRM 10231). Clinical isolates of MRSA (B042 V2E1 A), E. coli (ATCC BAA-2340), K. pneumoniae (ATCC BAA-1705), and P. aeruginosa (B004 V2S2 B) were also used to determine their antimicrobial activities. The suspension of microorganisms in the logarithmic growth phase with a specific final density (Gram-negative and Gram-positive bacteria: 5 × 10^5 CFU/mL; yeast: 1 × 10^6 CFU/mL) was incubated with different peptide concentrations from 1 µM to 512 µM at 37 °C for 24 h. PBS was used as the negative control, and norfloxacin and amphotericin B were selected as the positive control for bacteria and yeast, respectively. Since the Norfloxacin had weak activities against P. aeruginosa (B004 V2S2 B) and K. pneumoniae (ATCC BAA 1705), gentamicin was used as the positive control for these two bacterial strains. The absorbance of each well was obtained using a microplate reader (EL808, Biolise BioTek, Winooski, VT, USA) set at 550 nm wavelength. The MIC value was the lowest concentration of a peptide that inhibits visible bacterial growth. Once the MIC values were determined, an aliquot from the bacterial culture exposed to the peptide at or above its MIC value was inoculated on a Mueller Hinton agar (MHA) and was incubated at 37 for 18 h. The MBC value was the lowest concentration of a peptide that kills 99.9% of bacteria.

In assay [2] the test system is K. pneumoniae (ATCC BAA-1705). The class given is cell-based, Klebsiella pneumoniae. To be noted: Klebsiella pneumoniae, ATCCBAA1705, clinical strain, 15 replicates in three independent assays. As for the experimental part:
as §1

Assay [3] deals with P. aeruginosa (B004 V2S2 B). The format is cell-based, Pseudomonas aeruginosa. The conditions noted are these: Pseudomonas aeruginosa, clinical strain, 15 replicates in three independent assays. As for the experimental part: as §1
Another assay relates to S. aureus (ATCC 6538). The format is cell-based, Staphylococcus aureus. To be noted: Staphylococcus aureus, ATCC6538, 15 replicates in three independent assays. The method, then:
as §1

The test system of a further assay is MRSA (B042 V2E1 A). The format is cell-based, methicillin-resistant Staphylococcus aureus. To be noted: Staphylococcus aureus, MRSA, clinical strain, 15 replicates in three independent assays. The method, then:
as §1

In another assay the test system is MRSA (NCTC 12493). The class given is cell-based, methicillin-resistant Staphylococcus aureus. To be noted: Staphylococcus aureus, 15 replicates in three independent assays. The method, then: as §1
For assay [4], the system named is K. pneumoniae (ATCC 43816). The class given is cell-based, Klebsiella pneumoniae. The conditions noted are these: Klebsiella pneumoniae, ATCC43816, 15 replicates in three independent assays. The method, then: as §1
The subject of a further assay is E. faecalis (NCTC 12697). The class given is cell-based, Enterococcus faecalis. The conditions noted are these: Enterococcus faecalis, NCTC12697, 15 replicates in three independent assays. The method, then:
as §1

For the next assay, the system named is E. coli (ATCC BAA-2340). The class given is cell-based, Escherichia coli. To be noted: Escherichia coli, ATCCBAA2340, clinical strain, 15 replicates in three independent assays. The method, then: as §1
The subject of the next assay is E. coli (ATCC CRM 8739). The format is cell-based, Escherichia coli. To be noted: Escherichia coli, 15 replicates in three independent assays. As for the experimental part:
as §1

Assay [5] concerns P. aeruginosa (ATCC CRM 9027). The class given is cell-based, Pseudomonas aeruginosa. To be noted: Pseudomonas aeruginosa, 15 replicates in three independent assays. The method, then: as §1
Where [6] appears, read: 5 × 10^5 CFU/mL, 37 °C, 24 h, 1-512 µM, absorbance 550 nm, read-out: MIC.
The mark [7] stands for this setting: aliquot plated on MHA, 18 h, kills 99.9%, read-out: MBC.

≈ marks a conversion by molar mass, not a printed value.

As to `C[C@@H]1[C@H](O)[C@@H](C)/C=C/C=C/C=C/C=C/C=C/C=C/C=C/[C@H](O[C@@H]2O[C@H](C)[C@@H](O)[C@H](N)[C@@H]2O)C[C@@H]2O[C@](O)(C[C@@H](O)C[C@@H](O)[C@H](O)CC[C@@H](O)C[C@@H](O)CC(=O)O[C@H]1C)C[C@H](O)[C@H]2C(=O)O` [amphotericin B, reference compound], in assay [1] (Candida albicans, aliquot plated on MHA, 18 h, kills 99.9%, read-out: MBC), the MBC was determined as 4 µM (≈ 3.7 µg/mL). In addition, the MIC in [1] (yeast 1 × 10^6 CFU/mL, 37 °C, 24 h, 1-512 µM, absorbance 550 nm, read-out: MIC) amounted to 4 µM (≈ 3.7 µg/mL).
`CNC(C)C1CCC(N)C(OC2C(N)CC(N)C(OC3OCC(C)(O)C(NC)C3O)C2O)O1` (stereo not shown) [Gentamicin, reference compound]: the MIC in assay [2] (setting [6]) was found to be 2 µM (≈ 0.955 µg/mL); in assay [3] (setting [6]), 1 µM (≈ 0.478 µg/mL). Further, the figures for the MBC in assay [2] (setting [7]) and in [3] (setting [7]) were 2 µM (≈ 0.955 µg/mL) and 1 µM (≈ 0.478 µg/mL), respectively.
Consider `CCn1cc(C(=O)O)c(=O)c2cc(F)c(N3CCNCC3)cc21` [Norfloxacin, reference compound], for which the MIC in the assay with S. aureus (ATCC 6538) (setting [6]) is 2 µM (≈ 0.639 µg/mL); with MRSA (B042 V2E1 A) (setting [6]), 2 µM (≈ 0.639 µg/mL); in the assay on MRSA (NCTC 12493) (setting [6]), 2 µM (≈ 0.639 µg/mL); in assay [4] (setting [6]) it was 2 µM (≈ 0.639 µg/mL); with E. faecalis (NCTC 12697) (setting [6]) it was 4 µM (≈ 1.28 µg/mL); in the assay with E. coli (ATCC BAA-2340) (setting [6]), 2 µM (≈ 0.639 µg/mL). The MIC in the assay with E. coli (ATCC CRM 8739) (setting [6]) was determined as 1 µM (≈ 0.319 µg/mL); in assay [5] (setting [6]), 2 µM (≈ 0.639 µg/mL). The MBC was found to be 2 µM (≈ 0.639 µg/mL) in the assay on S. aureus (ATCC 6538) (aliquot plated on MHA, 18 h, kills 99.9% of bacteria, read-out: MBC); 2 µM (≈ 0.639 µg/mL) in the assay with MRSA (B042 V2E1 A) (setting [7]); 2 µM (≈ 0.639 µg/mL) in the assay on MRSA (NCTC 12493) (setting [7]); 2 µM (≈ 0.639 µg/mL) in assay [4] (setting [7]); 4 µM (≈ 1.28 µg/mL) in the assay with E. faecalis (NCTC 12697) (setting [7]); 2 µM (≈ 0.639 µg/mL) with E. coli (ATCC BAA-2340) (setting [7]). The MBC in the assay on E. coli (ATCC CRM 8739) (setting [7]) worked out at 1 µM (≈ 0.319 µg/mL); in [5] (setting [7]), 2 µM (≈ 0.639 µg/mL).
